According to ChEMBL document CHEMBL1201862, “PubChem BioAssay data set” (2004):
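Results reflect a 48-hour exposure of cells in 96-well plates to compound at five concentrations. Abbreviation: GI50, concentration required for 50% inhibition of growth.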 The source made the active and inactive calls. No stated cut-off is given here; in the data, active = GI50 up to about 1.1 µM and inactive = higher.

What was measured:
Assay in all cases: NCI anticancer screen, dose series, 48 h
T47D = system: T47D
HT-29 = system: HT-29
Hs-578T = system: Hs-578T
UACC-62 = system: UACC-62
U-251 = system: U-251
UACC-257 = system: UACC-257
RPMI-8226 = system: RPMI-8226
MDA-MB-435 = system: MDA-MB-435
MDA-N = system: MDA-N
Malme-3M = system: Malme-3M
A549 = system: A549
PC-3 = system: PC-3
SNB-75 = system: SNB-75
HOP-92 = system: HOP-92
TK-10 = system: TK-10
MCF7 = system: MCF7
EKVX = system: EKVX
SK-MEL-5 = system: SK-MEL-5
NCI-H23 = system: NCI-H23
OVCAR-5 = system: OVCAR-5

Oc1nc(-c2ccc3ccccc3c2)nc2ccccc12
GI50 (T47D): 64 µM (inactive)
GI50 (HT-29): 57.7 µM (inactive)
GI50 (Hs-578T): 24.3 µM (inactive)
GI50 (UACC-62): > 100 µM (inactive)
GI50 (U-251): 25.5 µM (inactive)
GI50 (UACC-257): 74.6 µM (inactive)
GI50 (RPMI-8226): > 100 µM (inactive)
GI50 (MDA-MB-435): 61.9 µM (inactive)
GI50 (MDA-N): 49.2 µM (inactive)
GI50 (Malme-3M): 33.6 µM (inactive)
GI50 (A549): 26.9 µM (inactive)
GI50 (PC-3): > 100 µM (inactive)
GI50 (SNB-75): 4.53 µM (inactive)
GI50 (HOP-92): 17.4 µM (inactive)
GI50 (TK-10): 0.771 µM (active)
GI50 (MCF7): 64.4 µM (inactive)
GI50 (EKVX): 43.5 µM (inactive)
GI50 (SK-MEL-5): > 100 µM (inactive)
GI50 (NCI-H23): 58.5 µM (inactive)
GI50 (OVCAR-5): 35.2 µM (inactive)

CC1c2cc(c3c(c2O)CN([C@@H](C)C2CCCCC2)CO3)C(C)c2cc(c3c(c2O)CN([C@@H](C)C2CCCCC2)CO3)C(C)c2cc(c3c(c2O)CN([C@@H](C)C2CCCCC2)CO3)C(C)c2cc1c1c(c2O)CN([C@@H](C)C2CCCCC2)CO1 (stereo not given in full)
GI50 (T47D): 1.56 µM (inactive)
GI50 (HT-29): 0.277 µM (active)
GI50 (Hs-578T): 1.35 µM (inactive)
GI50 (UACC-62): 1.8 µM (inactive)
GI50 (U-251): 0.964 µM (active)
GI50 (UACC-257): 1.66 µM (inactive)
GI50 (RPMI-8226): 0.414 µM (active)
GI50 (MDA-MB-435): 1.8 µM (inactive)
GI50 (MDA-N): 0.849 µM (active)
GI50 (Malme-3M): 1.45 µM (inactive)
GI50 (A549): 1.84 µM (inactive)
GI50 (PC-3): 1.77 µM (inactive)
GI50 (SNB-75): 1.22 µM (inactive)
GI50 (HOP-92): 1.45 µM (inactive)
GI50 (TK-10): 1.73 µM (inactive)
GI50 (MCF7): 1.36 µM (inactive)
GI50 (EKVX): 1.06 µM (active)
GI50 (SK-MEL-5): 1.84 µM (inactive)
GI50 (NCI-H23): 1.5 µM (inactive)
GI50 (OVCAR-5): 1.78 µM (inactive)

Nc1nc(Cl)cc(NCC2(CCO)CCC2)n1
GI50 (T47D): 22.2 µM (inactive)
GI50 (HT-29): > 100 µM (inactive)
GI50 (Hs-578T): > 100 µM (inactive)
GI50 (UACC-62): > 10 µM (inactive)
GI50 (U-251): > 100 µM (inactive)
GI50 (UACC-257): > 100 µM (inactive)
GI50 (RPMI-8226): > 100 µM (inactive)
GI50 (MDA-MB-435): > 100 µM (inactive)
GI50 (MDA-N): > 100 µM (inactive)
GI50 (Malme-3M): > 100 µM (inactive)
GI50 (A549): > 100 µM (inactive)
GI50 (PC-3): > 100 µM (inactive)
GI50 (SNB-75): > 10 µM (inactive)
GI50 (HOP-92): > 100 µM (inactive)
GI50 (TK-10): > 100 µM (inactive)
GI50 (MCF7): > 100 µM (inactive)
GI50 (EKVX): 59.4 µM (inactive)
GI50 (SK-MEL-5): > 100 µM (inactive)
GI50 (NCI-H23): > 100 µM (inactive)
GI50 (OVCAR-5): > 100 µM (inactive)

Cc1c(S(=O)(=O)c2ccccc2)c(N)n(CCN(C)C)c1C
GI50 (T47D): > 100 µM (inactive)
GI50 (HT-29): > 100 µM (inactive)
GI50 (Hs-578T): > 100 µM (inactive)
GI50 (UACC-62): > 100 µM (inactive)
GI50 (U-251): > 100 µM (inactive)
GI50 (UACC-257): > 100 µM (inactive)
GI50 (RPMI-8226): > 100 µM (inactive)
GI50 (MDA-MB-435): > 100 µM (inactive)
GI50 (MDA-N): > 100 µM (inactive)
GI50 (Malme-3M): > 100 µM (inactive)
GI50 (A549): > 100 µM (inactive)
GI50 (PC-3): 86.9 µM (inactive)
GI50 (SNB-75): > 100 µM (inactive)
GI50 (HOP-92): > 100 µM (inactive)
GI50 (TK-10): > 100 µM (inactive)
GI50 (MCF7): > 100 µM (inactive)
GI50 (EKVX): > 100 µM (inactive)
GI50 (SK-MEL-5): > 100 µM (inactive)
GI50 (NCI-H23): > 100 µM (inactive)
GI50 (OVCAR-5): > 100 µM (inactive)

Nc1c2c(nc3cc(F)c(F)cc13)CCC2
GI50 (T47D): 96.6 µM (inactive)
GI50 (HT-29): 31.8 µM (inactive)
GI50 (Hs-578T): > 100 µM (inactive)
GI50 (UACC-62): 82.4 µM (inactive)
GI50 (U-251): 56.6 µM (inactive)
GI50 (UACC-257): 44.4 µM (inactive)
GI50 (RPMI-8226): 43.9 µM (inactive)
GI50 (MDA-MB-435): 54 µM (inactive)
GI50 (MDA-N): 49 µM (inactive)
GI50 (Malme-3M): 41.7 µM (inactive)
GI50 (A549): 42.2 µM (inactive)
GI50 (PC-3): 39.8 µM (inactive)
GI50 (SNB-75): 42.5 µM (inactive)
GI50 (HOP-92): 38.3 µM (inactive)
GI50 (TK-10): 26.4 µM (inactive)
GI50 (MCF7): 33.3 µM (inactive)
GI50 (EKVX): 52.1 µM (inactive)
GI50 (SK-MEL-5): 42.7 µM (inactive)
GI50 (NCI-H23): 99.5 µM (inactive)
GI50 (OVCAR-5): 49.9 µM (inactive)

Nc1ncnc2c1nc(Cl)n2[C@@H]1O[C@@H]2COP(=O)(O)O[C@H]2[C@H]1O [TOCLADESINE]
GI50 (T47D): 14.7 µM (inactive)
GI50 (HT-29): 8.39 µM (inactive)
GI50 (Hs-578T): 28.7 µM (inactive)
GI50 (UACC-62): 15.7 µM (inactive)
GI50 (U-251): 67.8 µM (inactive)
GI50 (UACC-257): 42.6 µM (inactive)
GI50 (RPMI-8226): 6.47 µM (inactive)
GI50 (MDA-MB-435): 5.41 µM (inactive)
GI50 (MDA-N): 10.9 µM (inactive)
GI50 (Malme-3M): 152 µM (inactive)
GI50 (A549): 22.8 µM (inactive)
GI50 (PC-3): 8.3 µM (inactive)
GI50 (SNB-75): 31.8 µM (inactive)
GI50 (HOP-92): 12.2 µM (inactive)
GI50 (TK-10): 15.1 µM (inactive)
GI50 (MCF7): 8.11 µM (inactive)
GI50 (EKVX): 35.6 µM (inactive)
GI50 (SK-MEL-5): 152 µM (inactive)
GI50 (NCI-H23): 16.5 µM (inactive)
GI50 (OVCAR-5): 27.7 µM (inactive)
